Experimental data published in patent US11591368B2, “Peptides for cancer treatment” (CHUNG SHAN MEDICAL UNIVERSITY, priority 2017, dated 2023).
Where a SMILES comes first, the peptide text is derived from it. Where no end group is shown, it is not given here. The star is where a group is joined. Fmoc = O=C(OCC1c2ccccc2-c2ccccc21)*

What was measured:
CL1-5 cells [1] = experiment: Cell invasion assay (Matrigel-coated modified Boyden chamber) in CL1-5 cells; assay type: cell-based; conditions: for Invasion inhibition: LT fragments at 0, 12.5, 25 and 50 μM, FIG. 12
Description: Fmoc-LT1-3 peptides were used in cell invasion assay. A 24-well modified Boyden chamber with a polycarbonate membrane (8-μm pore size) was used for in vitro invasion assays. […] CL1-5 cells (3×10^4 cells/well) in RPMI medium with various concentrations of peptide were seeded onto the upper chamber. […] After 24 h of incubation, the cells were fixed with ice-cold 100% methanol and stained with 10% Giemsa. Following staining, cells on the upper side of the membrane were removed with a cotton swab. The number of invaded cells attached to the lower surface of the polycarbonate membranes was counted under a light microscope. All experiments were performed in triplicate.

CL1-5 cells [2] = experiment: Cell proliferation assay in CL1-5 cells; assay type: cell-based; conditions: for Growth inhibition: LT fragments at 0, 12.5, 25 and 50 μM; for growth inhibition (cell proliferation): Fmoc modified peptides, 24 h, FIG. 1 and FIG. 2
Description: The peptides described below were Fmoc modified and dissolved in DMSO and […] and then used in cell proliferation assay. CL1-5 cells were cultured to 80% confluence in RPMI medium containing 10% FBS. After detachment, 3×10^4[…]cells were seeded onto 12-well plates. After 16 h of incubation, cells were either harvested before treatment (designated as 0 h), or treated with LT peptides for 24 h (designated 24 h), and viable cells were counted. Relative fold-change in cell number or percent increase in cell growth (%) was calculated by following formula: (Cell number24h−Cell number0h)/(Cell number of control24h−Cell number of control0h).

CL1-5 cells [3] = assay type: in vivo, mice
Description: CL1-5 cells were washed, detached, and resuspended in PBS. Subsequently, a single-cell suspension containing 2×10^6 cell in 80 μL PBS was mixed with 20 μL 10× Matrigel (Corning, 5117012). The cell suspension was subcutaneously injected into the upper back of the immune deficient BALB/CAnN.Cg-Foxn1nu/CrlBltw mice. […] The tumor-bearing mice were divided into five groups (n=8/group). […] On day 13, the mice in the Fmoc-LT1-3 group were subcutaneously injected with 20 nmol Fmoc-LT1-3/γ-CD in the lower back daily. […] During the course of each treatment, the tumor volume was measured every 3 days. The mortality rates of mice were recorded, which included mice with tumor volume over 1500 mm^3. The percent of survival rate is recorded in FIG. 11 and the median survival of each group is calculated in Table 1.

H460 = experiment: Cell proliferation assay in H460 lung cancer cell line; assay type: cell-based; conditions: H460, FIG. 4
H1299 = experiment: Cell proliferation assay in H1299 lung cancer cell line; assay type: cell-based; conditions: H1299, FIG. 4
A549 = experiment: Cell proliferation assay in A549 lung cancer cell line; assay type: cell-based; conditions: A549, FIG. 4
H1355 = experiment: Cell proliferation assay in H1355 lung cancer cell line; assay type: cell-based; conditions: H1355, FIG. 4
CL1-5 lung cancer cells = experiment: Tumor growth in xenograft animal model; assay type: in vivo
Description: Six-week old immune deficient BALB/CAnN.Cg-Foxn1nu/CrlBltw mice were housed in individual ventilated chambers (IVC). A total of 2×10^6 CL1-5 lung cancer cells in 100 μL PBS were mixed with 100 μL of 10× Matrigel. The lung cancer cells/Matrigel mix was injected subcutaneously to the lower back of the mice. Three days later, the mice were treated with 0, 10, 20, or 30 nmol of Fmoc-LT-1-3 subcutaneously everyday. The Fmoc-LT-1-3 peptide was dissolved in 100% DMSO and diluted to the desired concentration in PBS from day 3 to day 17. On the 18th day, we observed that 80% of control group animal, 40% of 10 nmol group animal, 20% of 20 nmol group animal, and 40% of 30 nmol group animal developed tumor. Percent of tumor free animal increased with increasing level of Fmoc-LT1-3 between 10 nmol and 20 nmol. […] This phenomenon may be due to lower solubility of Fmoc-LT1-3 at higher concentration. We thus decided to replace the solvent from DMSO with γ-CD, and diluted the peptide to the desired concentration for injection on the 18th day and thereafter. The volume of tumor was measured periodically. […] On the 39th day, animals were sacrificed. The tumor and organs were weighted, fixed and embedded in paraffin. Embedded tissue were sectioned and stained with hematoxylin-eosin for histologic analysis.

| Compound | Invasion inhibition (CL1-5 cells [1]) | Growth inhibition (CL1-5 cells [2]; CL1-5 cells) | growth inhibition (cell proliferation) (CL1-5 cells [2]; CL1-5 cells) | other results |
| --- | --- | --- | --- | --- |
| ASAIYSVETINDGNFHIVELLA [LT-1] | inhibitory effect and Yes | inhibitory effect and Yes |  |  |
| N.N.[Cl][Pt][Cl] [cisplatin, reference compound] |  |  |  | Median survival (CL1-5 cells [3]; single agent: cisplatin 4 mg/kg IP weekly 4 times, or 20 nmol Fmoc-LT1-3/γ-CD s.c. daily): 37.5 days |
| AHIVELLA (Fmoc-AHIVELLA) [LT-A1, Fmoc modified in the proliferation assay] |  |  | better inhibition activity than F-moc-LT1-3 peptide |  |
| FHIAELLA (Fmoc-FHIAELLA) [LT-A4, Fmoc modified in the proliferation assay] |  |  | better inhibition activity than F-moc-LT1-3 peptide |  |
| O=S(=O)(NCCNC/C=C/c1ccc(Br)cc1)c1cccc2cnccc12 [H89, reference compound] |  |  |  | LT-peptide-mediated growth inhibition together with PKA inhibitor (H89) (CL1-5 cells [2]; CL1-5 cells, FIG. 24): enhances growth inhibition activity |
| KIITNLSKQSTLNFDSPLYVGG [LT-3] | inhibitory effect on cell invasion only and Yes | No |  |  |
| Fmoc-LT-A3: Fmoc binds to N terminal of FHAVELLA (SEQ ID NO:10) (Fmoc-FHAVELLA) |  |  | best growth inhibition capability | growth inhibition in lung cancer cell lines (H460): greatly inhibited; growth inhibition in lung cancer cell lines (H1299): partially inhibited; growth inhibition in lung cancer cell lines (A549): no effect; cell invasion inhibition (CL1-5 cells [1]; Fmoc peptides, 24 h, FIG. 5): inhibited cell invasion; growth inhibition in lung cancer cell lines (CL1-5 cells [2]; CL1-5, FIG. 4): greatly inhibited; growth inhibition, dose effect experiment (CL1-5 cells [2]; Fmoc-LT-peptides, CL1-5 cells, FIG. 3): best growth inhibition capability; growth inhibition in lung cancer cell lines (H1355): greatly inhibited |
| FAIVELLA (Fmoc-FAIVELLA) [LT-A2, Fmoc modified in the proliferation assay] |  |  | better inhibition activity than F-moc-LT1-3 peptide |  |
| FHIVEALA (Fmoc-FHIVEALA) [LT-A6, Fmoc modified in the proliferation assay] |  |  | better inhibition activity than F-moc-LT1-3 peptide |  |
| LRQAPGQNGTSFHGCIRNLYINSE [LT-5] | inhibitory effect on cell invasion only and Yes | No |  |  |
| FHIVELAA (Fmoc-FHIVELAA) [LT-A7, Fmoc modified in the proliferation assay] |  |  | better inhibition activity than F-moc-LT1-3 peptide |  |
| CC[C@H](C)[C@H](NC(=O)[C@H](Cc1c[nH]cn1)NC(=O)[C@H](Cc1ccccc1)NC(=O)OCC1c2ccccc2-c2ccccc21)C(=O)N[C@H](C(=O)N[C@@H](CCC(=O)O)C(=O)N[C@@H](CC(C)C)C(=O)N[C@@H](CC(C)C)C(=O)N[C@@H](C)C(=O)O)C(C)C [Fmoc-LT1-3] (Fmoc-FHIVELLA-OH; N-terminus and C-terminus assumed) |  |  |  | histologic analysis, toxicity (CL1-5 lung cancer cells; hematoxylin-eosin stained tissue, day 39): did not reveal obvious toxicity; relative weight of organs (CL1-5 lung cancer cells; treatment groups vs control group, day 39, FIG. 9): no significant differences; effect on cisplatin-induced toxicity (CL1-5 cells [3]; combination treatment with cisplatin vs cisplatin only group): alleviate cisplatin-induced toxicity |
| GGMPGKSNVASLRQAPGQNGTSF [LT-4] | inhibitory effect on cell invasion only and Yes | No |  |  |
